{"source": "patent US11590117B2", "about": "“Treatment of a hematologic malignancy with 2-(4-chlorophenyl)-n-((2-(2,6-dioxopiperidin-3-yl)-1-oxoisoindolin-5-yl)methyl)-2,2-difluoroacetamide” (priority 2016, dated 2023)", "format_in_all_cases": "cell-based", "key": {"HNT-34": {"system": "HNT-34", "assay": "Flow cytometry viable cell counting, 72 hours", "conditions": "Homo sapiens, HNT-34 as sensitive positive control cell line in PBMC comparison, read-out: cell count IC50", "procedure": "(§1) The effects of Compound 1 in healthy PBMCs were also assessed. Compound 1 was added to PBMC s from one donor at time zero and assessed at 72 hours. This was compared to PBMCs that were pre-activated and proliferating on anti-CD3 antibody-coated plates for 72 hours before Compound 1 was added and the cells were incubated for an additional 72 hours. HNT-34 cells were used as a sensitive positive control cell line. Peripheral blood mononuclear cells that were pre-activated were resistant to the antiproliferative effects of Compound 1 (IC50>[…]) as determined by CTG and viable cell count. However, Compound 1 did reduce cell proliferation in PBMCs that were not pre-activated, as measured using two methods, CTG and flow cytometry cell counting (CTG IC50=0.1 μM; cell count IC50=0.5 μM). […] Similar or greater differences in Compound 1-induced elevation of caspase 3/7 and membrane depolarization were seen between pre-activated PBMCs and HNT-34 cells."}, "PBMCs": {"system": "PBMCs", "assay": "Flow cytometry viable cell counting, 72 hours", "conditions": "Homo sapiens, PBMC, PBMCs not pre-activated, read-out: cell count IC50", "procedure": "as §1"}, "AML cell lines": {"system": "AML cell lines", "assay": "IncuCyte Kinetic Caspase-3/7 Apoptosis Assay, panel of twenty AML cell lines", "conditions": "Homo sapiens", "text": "Methods. Acute Myeloid Leukemia Cell Line Panel: Human AML cell lines, AML-193, F36-P, GDM-1, HL-60, HNT-34, Kasumi-1, Kasumi-3, KG-1, KG-1a, ML-2, MOLM-13, MUTZ-8, MV-4-11, NOMO-1, OCI-AML2, OCI-AML3, SIG-M5, TF-1, THP-1, and UT-7 were obtained from American Type Culture Collection (ATCC; Manassas, Va.) and Deutsche Sammlung von Mikroorganismen und Zellkulturen (DSMZ) (Germany) cell banks. The AML panel includes cell line(s) from each FAB classification (M0-M7) (Table 7).\nCell Culture Conditions: Cell lines were maintained in growth media containing 20% fetal bovine serum (FBS) (Hyclone Cat no. SH30910.03, Lot no. AZF188864; Corning REFno. 35-010-CV, Lot no. 35010124) supplemented with or without 10 ng/mL human recombinant granulocyte-macrophage colony stimulating factor (Sigma-Aldrich Cat no. SRP3050) (Table 8). Medium was purchased from ATCC (Cat no. 30-2001, 30-2002, 30-2003, 30-2005) and Gibco (REF no. 12561-056). Human recombinant granulocyte macrophage colony stimulating factor (GM-CSF) was expressed in Escherichia coli. The cell doubling times for each cell line were provided by ATCC and DSMZ. Cells were maintained in humidified incubators at 5% carbon dioxide (CO2). All cell lines were acclimated to Eagle's minimal essential medium (EMEM)+20% FBS with or without GM-CSF over 2 to 4 weeks prior to live cell imaging using IncuCyte Zoom (Essen Biosciences). The use of EMEM was necessary to eliminate background fluorescence caused by riboflavin in most media.\nIncubation of Cell Cultures with Compound 1: Compound 1 was provided for studies by Celgene chemistry group at a stock concentration of 30 mM in 20 μL dimethyl sulfoxide (DMSO) frozen. Costar 96-well cell culture plates (Corning Cat no. 3595) were coated with 100 μL of 10 µg/mL fibronectin (Sigma-Aldrich Cat no. F1141) for 4 hours at 37° C. and immediately used or refrigerated overnight for later use. Cells (3000 to 6000 cells) were plated in growth medi in fibronectin-coated 96-well plates and incubated for a minimum of a few hours to overnight. Cells were incubated with a 12-point concentration response in triplicate with Compound 1 ([…]) including DMSO and Media controls. A 3-fold serial dilution of Compound 1 starting from a concentration of 200 μM in 0.6% DMSO (diluted in Media) was performed. For most sensitive cell lines, a 3-fold serial dilution of Compound 1 starting from a concentration of 20 μM in 0.6% DMSO (diluted in media) was performed. A volume of 5 μL or 10 μL for each dilution was added to 100 μL or 200 μL cells, respectively (0.3% DMSO final) and incubated for live cell imaging.\nLive Cell Imaging on IncuCyte Zoom: Following incubation of cells with Compound 1, diluted Caspase 3/7 reagent (Essen Biosciences Cat no. 4440) is added to each well. The Caspase-3/7 reagent couples the activated caspase-3/7 recognition motif (DEVD) to NucView™488, a DNA intercalating dye. The cleavage of substrate by activated caspase-3/7 results in the release of the DNA dye and green fluorescent staining of nuclear DNA. This allows imaging of cells undergoing caspase-3/7 mediated apoptosis over time. Caspase-3/7 activation was quantified using the IncuCyte™ ZOOM basic analyzer. Red-labeled cell lines were also imaged over time using the IncuCyte™ ZOOM basic analyzer, for determination of both cell doubling time and Compound 1 effect on cell viability. Experiments were performed at least two times in each cell line.\nNext, a 4 parameter log-logistic model was used to determine relative EC50 at each time point by the ‘drm’ function from the R ‘drc’ package (Ritz C, Streibig J C. Bioassay Analysis using R. J. Statist. Software 2005; 12(5):1-22). Goodness of fit was measured by R squared (coefficient of determination or the amount of variation explained by the model fit) of ≥80%, and EC50 parameter was assessed by having a ratio of standard error to the parameter of ≤40%, and the presence of at least one concentration point above and below the reported EC50. […]"}}, "note": "Like-named read-outs stand apart in the source and are kept apart here."}
{"smiles": "O=C1CCC(N2Cc3cc(CNC(=O)C(F)(F)c4ccc(Cl)cc4)ccc3C2=O)C(=O)N1", "note": "(stereo not drawn) [Compound 1, 2-(4-chlorophenyl)-N-((2-(2,6-dioxopiperidin-3-yl)-1-oxoisoindolin-5-yl)methyl)-2,2-difluoroacetamide]", "values": [{"measurement": "IC50", "setting": "HNT-34", "value": 4, "unit": "nM"}, {"measurement": "IC50", "setting": "PBMCs", "value": 500, "unit": "nM"}, {"measurement": "EC50", "setting": "AML cell lines; 12 h, 8 most sensitive cell lines (5 lines with curve fits), 12 hours, read-out: apoptosis EC50 12hr (range)", "value": "53 to 227", "unit": "nM"}, {"measurement": "EC50", "setting": "AML cell lines; 24 h, 14 of 20 cell lines with successful curve fits, 24 hours, read-out: apoptosis EC50 24hr (range)", "value": "7 to 916", "unit": "nM"}, {"measurement": "EC50", "setting": "AML cell lines; 48 h, eight highly sensitive cell lines (HNT-34, Kasumi-3, HL-60, ML-2, MV4-11, KG-1, MUTZ-8, GDM-1), 48 hours, read-out: apoptosis EC50 48hr (range)", "value": "4 to 49", "unit": "nM"}, {"measurement": "EC50", "setting": "AML cell lines; 48 h, eight highly sensitive cell lines, 48 hours, read-out: apoptosis average EC50 48hr", "value": 27, "unit": "nM"}, {"measurement": "EC50", "setting": "AML cell lines; 48 h, four least sensitive cell lines (UT-7, F36-P, MOLM-13, OCI-AML3), 48 hours, read-out: apoptosis EC50 48hr (range)", "value": "231 to 896", "unit": "nM"}, {"measurement": "EC50", "setting": "AML cell lines; 48 h, four least sensitive cell lines (UT-7, F36-P, MOLM-13, OCI-AML3), 48 hours, read-out: apoptosis average EC50 48hr", "value": 458, "unit": "nM"}, {"measurement": "EC50", "setting": "AML cell lines; 48 h, seven moderately sensitive cell lines (OCI-AML-2, AML-193, SIG-M5, Kasumi-1, TF-1, Nomo-1, KG-1a), 48 hours, read-out: apoptosis EC50 48hr (range)", "value": "81 to 145", "unit": "nM"}, {"measurement": "EC50", "setting": "AML cell lines; 48 h, seven moderately sensitive cell lines, 48 hours, read-out: apoptosis average EC50 48hr", "value": 114, "unit": "nM"}, {"measurement": "EC50", "setting": "AML cell lines; 72 h, AML cell panel, 72 hours, read-out: apoptosis EC50 72hr (range)", "value": "3 to 971", "unit": "nM"}, {"measurement": "EC50", "setting": "AML cell lines; 96 h, AML cell panel, 96 hours, read-out: apoptosis EC50 96hr (range)", "value": "1 to 418", "unit": "nM"}]}
